# Results published in patent publication US12465658B2, “Eye drop composition” (Aratana Therapeutics, Inc., priority 2012, dated 2025).
# Like-named read-outs stand apart in the source and are kept apart here.
# Experiments:
# varicella-zoster (VZV) = settings: in vivo, reported; cited from earlier work
# [1] = Vehicle candidates tested to solubilize A-5021 at 5 mg/mL at neutral pH; type: physicochemical; settings: aqueous with cosolvent or surfactant or cyclodextrin, pH 6.98-7.1 1, read-out: concentration of A-5021 solubilized
# Procedure: Based on the above indicated results and in order to be able to formulate A-5021 at pharmacologically active concentrations (preferably about […]), it was considered to investigate of additional solubilizing agents and/or keeping a high amount of propylene glycol at neutral pH. In total 28 vehicle candidates were tested to solubilize A-5021 at 5 mg/mL at neutral pH: propylene glycol at concentration ranging from 20% to 80% w/v, glycofurol at concentration ranging from 5% to 50% w/v, glycerol at concentration ranging from 15% to 50% w/v, 15% w/v glycerol+15 w/v glycofurol, 25% w/v propylene glycol+25% w/v glycofurol, propylene glycol (range: 15%-60% w/v)+glycerol (range: 5%-15% w/v), 25% w/v Kleptose® HPB+25% propylene glycol, cremophor RH 40, cremophor EL, solutol HS 15, 40-50% Kleptose® HPB, miglyol 812N, liquid paraffin, polyvinylpyrrolidone K12.
# Only four vehicles allowed solubilizing A-5021 at the concentration of 5 mg/mL (0.5% w/v) at close to neutral pH (the pH ranged from 6.98-7.1 1). These vehicles are (% w/v in water): • (i) 80% w/v propylene glycol; • (ii) 50% w/v Kleptose® HPB; • (iii) 60% w/v propylene glycol+15% w/v glycerol; • (iv) 60% w/v propylene glycol+10% w/v glycerol.
# [2] = Solubility of A-5021 by slurry experiments (24 h equilibration, filtration, HPLC of filtrate); type: physicochemical; settings: for solubility at 24 h: thermodynamic from solid
# Procedure: In order to determine the solubility of A-5021 (i.e. 2-amino-9-[[(1S,2R)-1,2-bis(hydroxymethyl)cyclopropyl]methyl]-1,9-dihydro-6H-Purin-6-one), a first series of 33 slurry experiments was performed. Within these experiments a set of 33 different systems (varying in i.e. buffers, co-solvents, solubilizing agents) were considered. The following six buffers were used: HCl buffer (pH 2), phosphate buffer (pH 6.8 and 7.4), tris(hydroxymethyl)aminoethane buffer (pH 9), sodium carbonate/bicarbonate (pH 10.8), and potassium dihydrogen phosphate (pH 12). As co-solvents dimethyl sulfoxide (DMSO), dimethyl acetamide (DMA), N-methyl pyrrolidone (NMP), ethanol (EtOH), and propylene glycol were used with varying concentrations. The solubilizing agents used were propylene glycol, glycerin, solutol HS 15, polysorbate 80, beta-cyclodextrin, hydroxypropyl beta-cyclodextrin (Kleptose® HPB), cremophor EL, cremophor RH 60, polyethylene glycol (PEG) 300, PEG 400, and sulfobutylether beta-cyclodextrin (e.g. Captisol®). The solubility was determined by filtration of the slurries after 24 h equilibration time. The A-5021 concentration in the filtrates was analyzed by High-Performance Liquid Chromatography (HPLC), from which the corresponding solubility was calculated.
# Two different buffer systems, co-solvents, and solubilizing agents were considered with focus on systems that gave the best results as reported above. The solubility was again determined by filtration of the slurries after 24 h equilibration time. The A-5021 concentration in the filtrates was analyzed by HPLC, from which the corresponding solubility was calculated. Overall, no greater solubility values than the already reported values were found. […] A close to neutral pH buffered system (80% v/v propylene glycol and 20% v/v phosphate buffer at pH 7.4), which is of interest to develop ophthalmic solutions (allowing topical application of A-5021 to herpes virus-infected eyes) allows to solubilize A-5021 at 8.18 mg/mL. When 2-hydroxypropyl beta-cyclodextrin (HPBC) is used as a solubilizing agent instead of propylene glycol, the solubility of A-5021 decreases compared to the propylene glycol buffered systems.
# [3] = background; more than 1 mg/mL typically requires pH below 4 or above 10; cited from earlier work
# [4] = test system: herpes simplex virus type 2 (HSV-2); settings: in vivo, reported; cited from earlier work
# herpes virus = settings: Neyts et al. 2001; Iwayama et al. 1998; cited from earlier work
# [5] = test system: herpes simplex virus type 1 (HSV-1); settings: in vivo, reported; cited from earlier work
structure (smiles),measurement,setting,value
"Nc1nc2c(ncn2C[C@]2(CO)C[C@H]2CO)c(=O)[nH]1 [Formulation A-5021, 2-amino-9-[[(1S,2R)-1,2-bis(hydroxymethyl)cyclopropyl]methyl]-1,9-dihydro-6H-Purin-6-one]",antiviral activity,varicella-zoster (VZV),potent and selective antiviral agent
same,solubility,[1]; vehicle (i) 80% w/v propylene glycol in water,5000 µg/mL
same,solubility,[1]; vehicle (ii) 50% w/v Kleptose HPB in water,5000 µg/mL
same,solubility,[1]; vehicle (iii) 60% w/v propylene glycol+15% w/v glycerol in water,5000 µg/mL
same,solubility,[1]; vehicle (iv) 60% w/v propylene glycol+10% w/v glycerol in water,5000 µg/mL
same,solubility at 24 h,"[2]; 80% (v/v) propylene glycol / 20% (v/v) buffer, pH 1, aqueous with cosolvent or surfactant or cyclodextrin, 80% (v/v) propylene glycol in 20% (v/v) buffer (pH 1 1.3), highest solubility",8640 µg/mL
same,solubility at 24 h,"[2]; 80% v/v propylene glycol / 20% v/v phosphate buffer, pH 7.4, aqueous with cosolvent or surfactant or cyclodextrin, 80% v/v propylene glycol and 20% v/v phosphate buffer at pH 7.4",8180 µg/mL
same,solubility at 24 h,"[2]; pH 2.2, aqueous with cosolvent or surfactant or cyclodextrin, 60% v/v HCl buffer and 40% w/v HPBC, pH 2.2",6760 µg/mL
same,solubility at 24 h,"[2]; pH 2.8, aqueous with cosolvent or surfactant or cyclodextrin, acidic pH 2.8 instead of pH 11.3, room temperature",8500 µg/mL
same,solubility at 24 h,"[2]; pH 7, aqueous with cosolvent or surfactant or cyclodextrin, 5.7-33.34% v/v propylene glycol, 33.33-40% w/v/v HPBC, 33.34-54.3% v/v buffer, pH 7.0-7.4",3280 to 4050 µg/mL
same,solubility at 24 h,"[2]; pH 7, aqueous with cosolvent or surfactant or cyclodextrin, 60% v/v HCl buffer and 40% w/v HPBC, pH 7",4910 µg/mL
same,effect on solubility of adding an organic co-solvent,[2]; pH 12 buffered solutions,does not improve the solubility
same,solubility,[3],poor solubility
same,antiviral activity,[4],potent and selective antiviral agent
same,inhibition of herpes virus replication,herpes virus,potent inhibitor
same,antiviral activity,[5],potent and selective antiviral agent
